Data: patent US20160378909A1, “PROCESS FOR IDENTIFYING CULTURE CONDITIONS FOR A CELL OR ORGANISM” (GLAXOSMITHKLINE BIOLOGICALS SA, priority 2013, published 2016)
Where two headings read alike, the source gives them in different places.

System: Bordetella pertussis
Test: microbe, parasite or virus in culture
Type: cell-based
Settings: for activity at 2.8 µg/mL / activity at 28 µg/mL / activity at 2000 µM / activity at 20000 µM / activity at 1330 µM / activity at 13300 µM / activity at 0.2 µg/mL / activity at 2 µg/mL / activity at 250 µM / activity at 2500 µM: Bordetella pertussis
Description: Cells were harvested by centrifugation, washed twice with NaCl 0.9% (w/v), and resuspended in fresh medium (de novo minimal CDM; see composition in Table 1) at a theoretical OD650 nm of 0.5, as calculated from the OD650 nm of the culture before harvest. 20 μl of this cell suspension were used to inoculate each well of a 96-well microtiter plate filled with 180 μl of de novo minimal CDM. Only the inner wells of the plate were used for cultures, in order to minimize evaporation, and two controls were included, in which the supplement solution was replaced with water.
The plate was then incubated for 7 days at 35° C. in a Biotek Synergy H1 reader with constant shaking, and growth was automatically monitored every 10 minutes as OD650 nm.
The relative growth yield and growth rate for each supplement was then averaged over the three independent repeats, and the standard deviation was calculated.

[1] = 168 h, read-out: Relative yield Average, 2 mM in medium, max OD650 nm relative to water controls
[2] = 168 h, read-out: Relative yield Average, 20 mM in medium, max OD650 nm relative to water controls
[3] = 168 h, read-out: Relative yield Average, 1.33 mM in medium, max OD650 nm relative to water controls
[4] = read-out: Relative growth rate Average, 1.33 mM in medium, first generation, relative to water controls
[5] = read-out: Relative growth rate Average, 2 mM in medium, first generation, relative to water controls
[6] = 2 mM in medium, first generation, relative to water controls
[7] = 2 mM in medium, max OD650 nm relative to water controls
[8] = 20 mM in medium, first generation, relative to water controls
[9] = 20 mM in medium, max OD650 nm relative to water controls

## O[C@H]1[C@H](O)[C@@H](O)[C@H](O)[C@@H](O)[C@H]1O [Inositol]
168 h, read-out: Relative yield Average, 2.8 mg/L in medium, max OD650 nm relative to water controls
  activity at 2.8 µg/mL: 95 to 105%
168 h, read-out: Relative yield Average, 28 mg/L in medium, max OD650 nm relative to water controls
  activity at 28 µg/mL: 95 to 105%
read-out: Relative growth rate Average, 2.8 mg/L in medium, first generation, relative to water controls
  activity at 2.8 µg/mL: 95 to 105%
read-out: Relative growth rate Average, 28 mg/L in medium, first generation, relative to water controls
  activity at 28 µg/mL: 95 to 105%

## O=C(O)[C@@H]1CCCN1 [L-Proline]
[1]
  activity at 2000 µM: 95 to 105%
[2]
  activity at 20000 µM: > 105%

## NC(=O)C[C@H](N)C(=O)O [L-Asparagine]
[3]
  activity at 1330 µM: 95 to 105%
168 h, read-out: Relative yield Average, 13.3 mM in medium, max OD650 nm relative to water controls
  activity at 13300 µM: < 95%
[4]
  activity at 1330 µM: 95 to 105%
read-out: Relative growth rate Average, 13.3 mM in medium, first generation, relative to water controls
  activity at 13300 µM: 95 to 105%

## OB(O)O [Supplement H3BO3, H3BO3]
2.36 mg/L in medium, first generation, relative to water controls
  Relative growth rate Average: 93.25%
2.36 mg/L in medium, max OD650 nm relative to water controls
  Relative yield Average: 96.86%

## Nc1ccc(C(=O)O)cc1 [para-aminobenzoic acid]
168 h, read-out: Relative yield Average, 0.2 mg/L in medium, max OD650 nm relative to water controls
  activity at 0.2 µg/mL: 95 to 105%
168 h, read-out: Relative yield Average, 2 mg/L in medium, max OD650 nm relative to water controls
  activity at 2 µg/mL: 95 to 105%
read-out: Relative growth rate Average, 0.2 mg/L in medium, first generation, relative to water controls
  activity at 0.2 µg/mL: > 105%
read-out: Relative growth rate Average, 2 mg/L in medium, first generation, relative to water controls
  activity at 2 µg/mL: 95 to 105%

## N[C@@H](CS)C(=O)O [L-Cysteine]
168 h, read-out: Relative yield Average, 0.25 mM in medium, max OD650 nm relative to water controls
  activity at 250 µM: 158%
[1]
  activity at 2000 µM: > 105%
168 h, read-out: Relative yield Average, 2.5 mM in medium, max OD650 nm relative to water controls
  activity at 2500 µM: 212%
[2]
  activity at 20000 µM: > 105%
read-out: Relative growth rate Average, 0.25 mM in medium, first generation, relative to water controls
  activity at 250 µM: 155%
[5]
  activity at 2000 µM: > 105%
read-out: Relative growth rate Average, 2.5 mM in medium, first generation, relative to water controls
  activity at 2500 µM: 146%
read-out: Relative growth rate Average, 20 mM in medium, first generation, relative to water controls
  activity at 20000 µM: > 105%

## C[C@H](N)C(=O)O [L-Alanine]
[1]
  activity at 2000 µM: 95 to 105%
[5]
  activity at 2000 µM: > 105%

## O.O=S(=O)([O-])[O-].[Mn+2] [MnSO4•H2O]
1.89 mg/L in medium, first generation, relative to water controls
  Relative growth rate Average: 91.27%
1.89 mg/L in medium, max OD650 nm relative to water controls
  Relative yield Average: 109.53%
18.9 mg/L in medium, first generation, relative to water controls
  Relative growth rate Average: 47.58%
18.9 mg/L in medium, max OD650 nm relative to water controls
  Relative yield Average: 91.55%

## O.O.[Na+].[Na+].[O]=[Mo](=[O])([O-])[O-] [Na2MoO4•2H2O]
0.94 mg/L in medium, first generation, relative to water controls
  Relative growth rate Average: 86.76%
0.94 mg/L in medium, max OD650 nm relative to water controls
  Relative yield Average: 101.96%
9.4 mg/L in medium, first generation, relative to water controls
  Relative growth rate Average: 91.79%
9.4 mg/L in medium, max OD650 nm relative to water controls
  Relative yield Average: 105.65%

## CC(O)CC(=O)[O-].[Na+] (racemic) [Sodium DL-beta-hydroxybutyrate]
[6]
  Relative growth rate Average: 100.28%
[7]
  Relative yield Average: 96.73%
[8]
  Relative growth rate Average: 94.37%
[9]
  Relative yield Average: 145.46%

## CC(C)C[C@H](N)C(=O)O [L-Leucine]
[3]
  activity at 1330 µM: 95 to 105%
[4]
  activity at 1330 µM: 95 to 105%

## [I-].[K+] [Potassium iodide]
0.47 mg/L in medium, first generation, relative to water controls
  Relative growth rate Average: 94.69%
0.47 mg/L in medium, max OD650 nm relative to water controls
  Relative yield Average: 101.89%
4.7 mg/L in medium, first generation, relative to water controls
  Relative growth rate Average: 99.91%
4.7 mg/L in medium, max OD650 nm relative to water controls
  Relative yield Average: 104.26%

## O.O.O.O.O.O.[Cl-].[Cl-].[Co+2] [CoCl2•6H2O]
0.42 mg/L in medium, first generation, relative to water controls
  Relative growth rate Average: 93.44%
0.42 mg/L in medium, max OD650 nm relative to water controls
  Relative yield Average: 103.04%
4.2 mg/L in medium, first generation, relative to water controls
  Relative growth rate Average: 46.12%
4.2 mg/L in medium, max OD650 nm relative to water controls
  Relative yield Average: 149.59%

## O=C[O-].[Na+] [Sodium formate]
[6]
  Relative growth rate Average: 97.36%
[7]
  Relative yield Average: 143.35%
[8]
  Relative growth rate Average: 89.12%
[9]
  Relative yield Average: 168.28%

## CC(=O)C(=O)O [Sodium pyruvate]
[1]
  activity at 2000 µM: < 95%
[5]
  activity at 2000 µM: < 95%

## O.O.[Ca+2].[Cl-].[Cl-] [CaCl2•2H2O]
0.3 mM in medium, first generation, relative to water controls
  Relative growth rate Average: 107.49%
0.3 mM in medium, max OD650 nm relative to water controls
  Relative yield Average: 104.03%
3 mM in medium, first generation, relative to water controls
  Relative growth rate Average: 92.03%
3 mM in medium, max OD650 nm relative to water controls
  Relative yield Average: 107.34%
